# Measurements taken from patent US20240327401A1, “FUSED RING COMPOUND, PHARMACEUTICAL COMPOSITION, AND APPLICATION THEREOF” (EVOPOINT BIOSCIENCES CO., LTD., priority 2021, published 2024).
# Tests used:
# [1] = test system: ERK phosphorylation in DLD-1 cells; assay: In-cell Western blot assay for ERK phosphorylation in DLD-1 cells; assay type: cell-based; settings: Homo sapiens, p-ERK signal corrected using DMSO and BI-3406, four-parameter fit
# Description: Efficacy Example 1: In-cell Western Blot Assay for ERK Phosphorylation in DLD-1 Cells
# DLD-1 cells (ATCC, CCL-221) were thawed and cultured in a culture medium containing RPMI1640 (Gibco, A10491-01), 10% fetal bovine serum (FBS) (Transgene, FS201-02) and 1% antibiotic P/S (Gibco, 15140-122) for 3 days until the cell viability was good. The cells were inoculated into a 384-well plate and incubated at 37° C. with 5% CO2 overnight. A test compound, a positive control compound, and a negative control were added. The compound was at concentrations of 10000 nM to 1.52 nM (3-fold dilution) and […], for a total of 10 concentrations. The mixture was well mixed and incubated at 37° C. with 5% CO2. The cells were washed twice with PBS (Solarbio, P1010), and then a blocking buffer was added. After 1 h of blocking at room temperature, a primary antibody mixture (phospho-p44/42 MAPK (T202/Y204) Rabbit mAb (CST, […]), GAPDH (D4C6R) Mouse mAb) (CST, 97166S) was added, followed by overnight incubation at 4° C. The cells were washed 3 times with PBST (PBS containing 0.05% Tween-20 (Solarbio, T8220)), and a secondary antibody mixture (goat anti rabbit 800CW (LI-COR, 926-32211), goat anti mouse 680RD (LI-COR, 926-68070)) was added, followed by incubation at room temperature in the dark. The 384-well plate was reversed and centrifuged at 1000 rpm for 1 min, and read on an Odyssey CLx fluorescence imaging system (LI-COR) to obtain fluorescence signal values, which were corrected using DMSO and BI-3406.
# [formula] • H=Ave (DMSO) • L=Ave (BI-3406) • SD (H)=STDEV (DMSO) • SD (L)=STDEV (BI-3406)
# The IC50 values of the compounds were calculated using a four-parameter fitting algorithm, specifically as follows:
# [formula] • X: Log of cpd concentration • Y: Ave (relative pERK) • Top and Bottom: Plateaus in same units as Y • log IC50: same log units as X • HillSlope: Slope factor or Hill slope.
# [2] = target: T1, SOS1/KRAS G12C protein binding (Homo sapiens, UniProt Q07889); assay: Inhibition of SOS1/KRAS G12C protein binding (665 nm/615 nm ratio); settings: 15 nM KRAS G12C (aa 1-169), 2.5 nM His-SOS1 (aa 564-1049); nonlinear regression
# T1 construct: His-SOS1 (aa 564-1049) protein; purchased Pharmaron Beijing Co., Ltd. 20200717 (His-SOS1); 20200707 (KRAS G12C)
# T1 sequence (Q07889 564-1049): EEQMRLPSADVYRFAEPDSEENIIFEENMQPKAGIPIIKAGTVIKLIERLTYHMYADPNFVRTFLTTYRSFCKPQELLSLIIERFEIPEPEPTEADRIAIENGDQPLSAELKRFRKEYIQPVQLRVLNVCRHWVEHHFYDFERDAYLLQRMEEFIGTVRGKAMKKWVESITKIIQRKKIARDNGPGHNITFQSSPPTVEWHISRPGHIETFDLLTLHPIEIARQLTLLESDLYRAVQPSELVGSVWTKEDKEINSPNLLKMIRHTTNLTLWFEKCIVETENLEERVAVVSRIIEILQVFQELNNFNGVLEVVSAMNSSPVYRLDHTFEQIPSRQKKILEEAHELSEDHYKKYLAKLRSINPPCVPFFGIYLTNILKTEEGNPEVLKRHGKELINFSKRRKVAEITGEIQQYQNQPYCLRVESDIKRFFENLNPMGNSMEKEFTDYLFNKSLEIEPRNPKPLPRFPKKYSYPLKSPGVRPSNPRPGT
# Description: Efficacy Example 2: Evaluation of Inhibition of SOS1/KRAS G12C Protein Binding
# A test compound was dissolved in 100% DMSO to give a solution at a concentration of 10 mM. 10 μL of the solution was taken and 3-fold diluted with 100% DMSO to prepare test compound solutions with concentrations of 10000 nM to […], for a total of 11 concentrations. The compound solutions at different concentrations were then transferred to a 384-well plate at 0.1 μL/well using a sonic droplet device Echo (Labcyte), and 2 replicate wells were set for each concentration.
# A 15 nM KRAS G12C (aa 1-169) protein (Pharmaron Beijing Co., Ltd., 20200707) was transferred to the 384-well reaction plate at 5 μL/well using the sonic droplet device Echo (Labcyte), and then the reaction plate was centrifuged in a centrifuge (Eppendorf, 5810R) at 1000 rpm/min for 1 min.
# A 2.5 nM His-SOS1 (aa 564-1049) protein (Pharmaron Beijing Co., Ltd., 20200717) was transferred to the 384-well reaction plate at 5 μL/well using the sonic droplet device Echo (Labcyte), and then the reaction plate was centrifuged in a centrifuge (Eppendorf, 5810R) at 1000 rpm/min for 1 min and incubated at 25° C. for 15 min.
# A mixed solution of Antibody 1 (MAb Anti-6his-Tb cryptate Gold, Cisbio, 61HI2TLA) and Antibody 2 (MAb Anti-GST-XL665, Cisbio, 61GSTXLA) was transferred to the 384-well reaction plate at 10 μL/well using the sonic droplet device Echo (Labcyte), and then the reaction plate was centrifuged in a centrifuge (Eppendorf, 5810R) at 1000 rpm/min for 1 min and incubated at 25° C. for 120 min.
# The 665 nm/615 nm optical density ratio was read using an Envision multifunctional microplate reader (Perkin Elmer, Envision 2104).
# Analysis of Original Data:
# The IC50 values of the compounds were fitted by a nonlinear regression equation of Graphpad Prism 8. The results are shown in Table 2: • Negative control: DMSO
# The IC50 (half maximal inhibitory concentration) values of the compounds were calculated using the following non-linear fitting equation:
# [formula] • X: Log of cpd concentration • Y: 665 nm/615 nm ratio
compound,measurement,setting,value
COc1c(=O)n(C2(C(F)F)CC2)cc2c(N[C@H](C)c3cccc(C(F)(F)F)c3F)nc(C)nc12 [SZ-022349],IC50,[1],193 nM
same,IC50,[2],7.23 nM
COc1c(=O)n(C2(C(F)F)CC2)cc2c(N[C@H](C)c3cccc(C(C)(F)F)c3)nc(C)nc12 [SZ-022350],IC50,[1],211 nM
same,IC50,[2],16.7 nM
Cc1nc(N[C@H](C)c2cccc(C(F)F)c2F)c2cn(C3(C(F)F)CC3)c(=O)c(O[C@H]3CCOC3)c2n1 [SZ-022351],IC50,[1],555 nM
same,IC50,[2],21.4 nM
Cc1nc(N[C@H](C)c2cccc(C(F)F)c2F)c2cn(C3(C(F)F)CC3)c(=O)c(OCCO)c2n1 [SZ-022352],IC50,[1],516 nM
same,IC50,[2],16 nM
Cc1nc(N[C@H](C)c2cccc(C(F)F)c2F)c2cn(C3(C(F)F)CC3)c(=O)c(O[C@@H]3CCOC3)c2n1 [SZ-022353],IC50,[1],377 nM
same,IC50,[2],17.5 nM
[2H]C([2H])([2H])Oc1c(=O)n(C2(C(F)(F)F)CC2)cc2c(N[C@H](C)c3cccc(C(F)F)c3F)nc(C)nc12 [SZ-022354],IC50,[1],138 nM
same,IC50,[2],21.8 nM
[2H]C([2H])([2H])Oc1c(=O)n(C2(C(F)F)CC2)cc2c(N[C@H](C)c3cccc(C(C)(F)F)c3F)nc(C)nc12 [SZ-022355],IC50,[1],112 nM
same,IC50,[2],2.47 nM
COc1c(=O)n(C2(C)CC2)cc2c(N[C@H](C)c3cccc(C(C)(F)F)c3F)nc(C)nc12 [SZ-022356],IC50,[1],218 nM
same,IC50,[2],4.36 nM
COc1c(=O)n(C2(CF)CC2)cc2c(N[C@H](C)c3cccc(C(C)(F)F)c3F)nc(C)nc12 [SZ-022357],IC50,[1],165 nM
same,IC50,[2],3.68 nM
COc1c(=O)n(C2(C(F)(F)F)CC2)cc2c(N[C@H](C)c3cccc(C(C)(F)F)c3F)nc(C)nc12 [SZ-022358],IC50,[1],222 nM
same,IC50,[2],4.79 nM
CCOc1c(=O)n(C2(C)CC2)cc2c(N[C@H](C)c3cccc(C(C)(F)F)c3F)nc(C)nc12 [SZ-022359],IC50,[1],231 nM
same,IC50,[2],8.57 nM
CCOc1c(=O)n(C2(C(F)(F)F)CC2)cc2c(N[C@H](C)c3cccc(C(C)(F)F)c3F)nc(C)nc12 [SZ-022360],IC50,[1],221 nM
same,IC50,[2],9.46 nM
CCOc1c(=O)n(C2(CF)CC2)cc2c(N[C@H](C)c3cccc(C(C)(F)F)c3F)nc(C)nc12 [SZ-022361],IC50,[1],164 nM
same,IC50,[2],4.62 nM
CCOc1c(=O)n(C2(C(F)(F)F)CC2)cc2c(N[C@H](C)c3cccc(C(F)F)c3F)nc(C)nc12 [SZ-022362],IC50,[1],77 nM
same,IC50,[2],12.4 nM
CCOc1c(=O)n(C2(CF)CC2)cc2c(N[C@H](C)c3cccc(C(F)F)c3F)nc(C)nc12 [SZ-022363],IC50,[1],171 nM
same,IC50,[2],7.36 nM
CCOc1c(=O)n(C2(C)CC2)cc2c(N[C@H](C)c3cccc(C(F)F)c3F)nc(C)nc12 [SZ-022364],IC50,[1],303 nM
same,IC50,[2],22.2 nM
Cc1nc(N[C@H](C)c2cccc(C(F)F)c2F)c2cn(C3(C(F)F)CC3)c(=O)c(OCC(F)F)c2n1 [SZ-022368],IC50,[1],249 nM
same,IC50,[2],23.5 nM
Cc1nc(N[C@H](C)c2cccc(C(F)(F)F)c2C)c2cn(C3(C)CC3)c(=O)c(S(C)(=O)=O)c2n1 [SZ-022371],IC50,[1],274 nM
same,IC50,[2],21.8 nM
COc1c(=O)n(C2(C(F)F)CC2)cc2c(N[C@H](C)c3ccc(-c4ccccc4CN(C)C)s3)nc(C)nc12 [SZ-022373],IC50,[1],42 nM
same,IC50,[2],1.4 nM
COc1c(=O)n(C2(C(F)F)CC2)cc2c(N[C@H](C)c3cccc(C#N)c3C)nc(C)nc12 [SZ-022381],IC50,[1],741 nM
same,IC50,[2],12.3 nM
[2H]C([2H])([2H])Oc1c(=O)n(C2(C(F)F)CC2)cc2c(N[C@H](C)c3cccc(C#N)c3C)nc(C)nc12 [SZ-022382],IC50,[1],729 nM
same,IC50,[2],8.86 nM
COc1c(=O)n(C2(C(F)(F)F)CC2)cc2c(N[C@H](C)c3cccc(C#N)c3C)nc(C)nc12 [SZ-022383],IC50,[1],985 nM
same,IC50,[2],18.4 nM
[2H]C([2H])([2H])Oc1c(=O)n(C2(C(F)(F)F)CC2)cc2c(N[C@H](C)c3cccc(C#N)c3C)nc(C)nc12 [SZ-022384],IC50,[1],884 nM
same,IC50,[2],15.4 nM
